Results: article PMC13168289, “Potent acridone antimalarial against all three life stages of Plasmodium” (Nature Communications, 2026)
Where “and” joins values, the source holds several entries; their conditions need not be identical. Equal values may be shown once. Read-outs that look alike come from different tables or passages of the source.

Columns and labels:
[1] = tested on: P. falciparum mutant T111 lines; assay: drug susceptibility of T111-selected cyt b mutant lines; assay type: cell-based, Plasmodium falciparum
Method: DNA extractions were performed on clonal parasites using the QIAamp DNA extraction kit (QIAGEN Inc, Valencia, CA) or ZYMO Quick gDNA Miniprep kit (Zymo Research Corp, Irvine, CA). For sequencing of the open reading frame of pfcytb, PCR was performed with genomic DNA using forward and reverse flanking primers for cyt b primer 1: 5’-[…]-3’ and primer 2: 5’-[…]-3’. PCR products were subjected to enzymatic cleanup with ExoSAP-IT (Thermo Fisher Scientific) and sent for Sanger sequencing (Eurofins Genomics, Louisville, KY) with PCR primer 2 paired with an internal forward primer: 5’-[…]-3’ and an internal reverse primer: 5’-[…]-3’. Sequences were assembled using 4Peaks software (Nucleobytes, Amsterdam, Netherlands) and aligned with Clustal Omega (EMBL-EBI). For sequencing of the open reading frame of pfdhodh, PCR was performed with genomic DNA using forward primer: 5’-[…]-3’ and reverse primer: 5’-[…]-3’. PCR products were prepared for Sanger sequencing and analyzed as described above, except using two forward primers: 5’-[…]-3’ and 5’-[…]-3’ and with two reverse primers: 5’-[…]-3’ and 5’-[…]-3’.
(§1) Drug susceptibility assays against P. falciparum strains were performed using a SYBR Green based assay. D6 and Dd2 were obtained from MR4. Tm90-C2B was obtained from WRAIR. Dd2-D1^I22L and ELQ-300 were obtained from VAPORHCS. D10yDHODH was obtained as a courtesy from Dr. Akhil Vaidya at Drexel University. P. yoelii ATV^r and ELQ-300^r clones were obtained from VAPORHCS.

[2] = tested on: P. cynomolgi hypnozoites and schizonts; assay: in vitro liver-stage P. cynomolgi assay in primary rhesus hepatocytes; assay type: cell-based, Plasmodium cynomolgi
Method: The liver-stage P. cynomolgi assay was designed to identify anti-hypnozoite drugs utilizing a 384-well in vitro culture system[31],[37]. Briefly, cryopreserved primary simian hepatocytes (donor lots XGB, OQB, and QHO: BioIVT, Inc.) were seeded in collagen-coated 384-well plates and infected with P. cynomolgi bastianellii (B strain) sporozoites dissected from infected Anopheles dirus mosquitoes. Test compounds were solubilized in 100% DMSO and serially diluted 2-fold to generate up to a 12-point dose-response curve, maintaining a final DMSO concentration of 0.1% across all wells. Two distinct treatment modes were evaluated. For the prophylactic assay, to assess the prevention of infection, compound exposure began 1-hour post-infection with daily media changes on Days 1 and 2. For the radical cure assay, to assess activity against established liver forms, drugs were administered daily from Day 4 through Day 7 post-infection. […] For readout on Day 8, plates were fixed and stained via immunofluorescence to visualize parasite forms (hypnozoites and schizonts) and hepatocyte nuclei, and images were acquired using an Operetta CLS high-content imaging system (PerkinElmer). Host hepatocyte viability was measured in parallel to determine compound toxicity. Parasite forms were automatically quantified using Harmony 4.9 software, and percent inhibition and toxicity were calculated relative to in-plate DMSO vehicle controls. IC50 and CC50 (half-maximal cytotoxic concentrations) were determined by fitting dose-response data to a four-parameter logistic (variable slope) model using a custom Python script incorporating a grid search algorithm.

[3] = tested on: P. yoelii wild type, ATV^r and ELQ-300^r clones; assay: 4-day suppression model with ATV- and ELQ-300-resistant clones; assay type: in vivo, P. yoelii in CF1 mice; conditions: (95% CI)
Excerpt: Animals were housed at the VAPORHCS in Thoren Maxi-Miser microisolator cages (78 sq. in. floor space) with a maximum density of five females or four males per cage. Cages were maintained on a 12-h light/dark cycle and provided with autoclaved nesting materials (nestlets) for environmental enrichment. All mice had ad libitum access to food and water. Four- to five-week-old female and male outbred CF1 mice (Charles River Laboratories, Raleigh, NC, USA) were randomly assigned to treatment and control groups using a simple randomization procedure (e.g., computer-generated random numbers) to ensure balanced distribution of baseline body weights and starting parasitemia levels across all cohorts. Groups of four mice (n = 4, mean body weight of each group was ~30 g) were infected intravenously with 3.5 × 10^4 P. yoelii (Kenya strain, MRA-428) from a donor animal. Drug administration commenced the day after the animals were inoculated (Day 1). The test drug or the drug combination was dissolved in PEG-400 and administered by oral gavage once daily for 4 successive days in the 4-day suppression model, but only once on Day 1 in the single-dose cure model. Blood was collected via the tail vein with the aid of a syringe needle on Day 5 and then at weekly intervals through Day 28. Blood films were Giemsa-stained and examined microscopically to determine the level of parasitemia. All mice were observed daily to assess clinical signs. Animals with observable parasitemia following the experiments were euthanized; animals cleared of parasitemia from their bloodstream were observed daily with assessment of parasitemia performed weekly until Day 28, at which point, the animal(s) were scored as cured of the infection and then humanely euthanized. All treated mice with a negative smear on Day 28 were considered cured (100% protection).
as §1

[4] = tested on: P. falciparum D6, Dd2, Tm90-C2B, Dd2-D1^I22L, D10yDHODH; assay: microbe, parasite or virus in culture; assay type: cell-based, Plasmodium falciparum
Method: as §1

[5] = tested on: luciferase-expressing P. berghei sporozoites; assay: liver-stage prophylaxis murine model with IVIS bioluminescence imaging; assay type: in vivo, P. berghei in Albino C57BL/6 mice; conditions: Days -1, 0, 1
Excerpt: Four- to six-week-old female inbred Albino C57BL/6 mice (18–22 g, Jackson Laboratories, Bar Harbor, ME, USA) were utilized. Animals were assigned unique study numbers via ear tags and cage cards and were randomly assigned to treatment or control groups (n = 5 per group) using a weigh-stratified randomization procedure. All animals were quarantined and acclimatized for 7 days prior to study initiation and were housed in a 12:12 light/dark cycle with food and water provided ad libitum. Mice were infected intravenously with 10^4 luciferase-expressing P. berghei sporozoites (ANKA strain) via tail vein injection on Day 0. Drugs were dissolved in PEG-400 and administered orally once per day on Day -1, Day 0, and Day 1. […] Infection reduction was assessed by comparing the bioluminescence signals emitted by treated groups with signals emitted by the vehicle control-treated group at that time point. Later blood-stage parasitemia was determined via flow cytometry. […] Long-term blood-stage efficacy was evaluated starting on Day 6 post-infection and continued for up to 31 days using flow cytometry.
In vivo antimalarial efficacy studies were performed as described above.

## O=C1C(O)=C([C@H]2CC[C@H](c3ccc(Cl)cc3)CC2)C(=O)c2ccccc21 [ATV, atovaquone]
[1]; Plasmodium falciparum, DD2, read-out: inhibition IC50 vs P. falciparum, Dd2
  IC50: 0.44 ± 0.052 nM
[1]; Plasmodium falciparum, DD2, read-out: inhibition IC50 vs P. falciparum, Dd2-A^131S-140I-259L
  IC50: 4.7 ± 0.44 nM
[1]; Plasmodium falciparum, DD2, read-out: inhibition IC50 vs P. falciparum, Dd2-A^131S-140I-259L-264L
  IC50: 15 ± 2 nM
[1]; Plasmodium falciparum, DD2, read-out: inhibition IC50 vs P. falciparum, Dd2-B^87V-131S-140I-259L
  IC50: 10 ± 1.4 nM
[1]; Plasmodium falciparum, DD2, read-out: inhibition IC50 vs P. falciparum, Dd2-B^131S-140I-259L-264L
  IC50: 11 ± 1.8 nM
[1]; Plasmodium falciparum, DD2, read-out: inhibition IC50 vs P. falciparum, Dd2-C0^119L-131S-259L (pfdhodh mutation)
  IC50: 15 ± 0.46 nM
[1]; Plasmodium falciparum, DD2, read-out: inhibition IC50 vs P. falciparum, Dd2-C1^131S-140I-259L (pfdhodh mutation)
  IC50: 25 ± 7.2 nM
[1]; Plasmodium falciparum, DD2, read-out: inhibition IC50 vs P. falciparum, Dd2^131S
  IC50: 0.34 ± 0.049 nM
[1]; Plasmodium falciparum, DD2, read-out: inhibition IC50 vs P. falciparum, Dd2^131S-259L
  IC50: 1.5 ± 0.17 nM
[1]; Plasmodium falciparum, DD2, read-out: inhibition IC50 vs P. falciparum, Dd2^259L
  IC50: 6.6 ± 1.9 nM
[2]; Plasmodium cynomolgi, Hepatocyte, in Macaca mulatta, prophylactic mode, hypnozoite, read-out: inhibition IC50
  IC50: > 1200 nM
[2]; Plasmodium cynomolgi, Hepatocyte, in Macaca mulatta, prophylactic mode, schizont, read-out: inhibition IC50
  IC50: 9.3 nM
[2]; Plasmodium cynomolgi, Hepatocyte, in Macaca mulatta, radical cure mode, hypnozoite, read-out: inhibition IC50
  IC50: 2460 nM
[2]; Plasmodium cynomolgi, Hepatocyte, in Macaca mulatta, radical cure mode, schizont, read-out: inhibition IC50
  IC50: 2250 nM
[2]; Plasmodium cynomolgi, Hepatocyte, in Macaca mulatta, summary in response to reviewers, read-out: IC50 values against hypnozoites
  IC50: > 2000 nM
[3]; P. yoelii ATVrY268S
  ED50: 15.3 (9.9–24) mg/kg/day
[3]; P. yoelii ELQ-300rI22L
  ED50: 0.068 (0.053–0.087) mg/kg/day
[3]; P. yoelii wild type
  ED50: 0.064 (0.049–0.085) mg/kg/day
[4]; Plasmodium falciparum, read-out: in vitro IC50 vs P. falciparum, D6
  IC50: 0.073 ± 0.01 nM
[4]; Plasmodium falciparum, read-out: in vitro IC50 vs P. falciparum, D10yDHODH
  IC50: > 2500 nM
[4]; Plasmodium falciparum, read-out: in vitro IC50 vs P. falciparum, Dd2
  IC50: 0.13 ± 0.012 nM
[4]; Plasmodium falciparum, read-out: in vitro IC50 vs P. falciparum, Dd2-D1^I22L (ELQ-300-resistant)
  IC50: 0.007 ± 0.0025 nM
[4]; Plasmodium falciparum, read-out: in vitro IC50 vs P. falciparum, Tm90-C2B (cyt b Y268S, ATV-resistant)
  IC50: 8538 ± 65 nM

## O=c1c2ccc(Oc3ccc(OC(F)(F)F)cc3)cc2[nH]c2cc(Cl)cc(F)c12 [T111]
[1]; Dd2-A^131S-140I-259L-264L, read-out: inhibition IC50 vs P. falciparum
  IC50: 98 ± 12 nM
[1]; Dd2-A^131S-140I-259L, read-out: inhibition IC50 vs P. falciparum
  IC50: 74 ± 5.1 nM
[1]; Dd2-B^87V-131S-140I-259L, read-out: inhibition IC50 vs P. falciparum
  IC50: 129 ± 6.3 nM
[1]; Dd2-B^131S-140I-259L-264L, read-out: inhibition IC50 vs P. falciparum
  IC50: 114 ± 13 nM
[1]; Dd2-C0^119L-131S-259L (pfdhodh mutation), read-out: inhibition IC50 vs P. falciparum
  IC50: 144 ± 12 nM
[1]; Dd2-C1^131S-140I-259L (pfdhodh mutation), read-out: inhibition IC50 vs P. falciparum
  IC50: 223 ± 36 nM
[1]; Dd2, read-out: inhibition IC50 vs P. falciparum
  IC50: 0.15 ± 0.023 nM
[1]; Dd2^131S-259L, read-out: inhibition IC50 vs P. falciparum
  IC50: 12 ± 2.5 nM
[1]; Dd2^131S, read-out: inhibition IC50 vs P. falciparum
  IC50: 0.78 ± 0.081 nM
[1]; Dd2^259L, read-out: inhibition IC50 vs P. falciparum
  IC50: 4.4 ± 0.71 nM
[2]; prophylactic mode, hypnozoite, read-out: inhibition IC50
  IC50: 93 nM
[2]; prophylactic mode, schizont, read-out: inhibition IC50
  IC50: 18 nM
[2]; radical cure mode, highest concentrations tested
  residual population of hypnozoites: 10-20%
[2]; radical cure mode, hypnozoite, read-out: inhibition IC50
  IC50: 500 nM
[2]; radical cure mode, schizont, read-out: inhibition IC50
  IC50: 280 nM
[3]; P. yoelii ATVrY268S
  ED50: 0.31 (0.29–0.34) mg/kg/day and 0.31 mg/kg/day
[3]; P. yoelii ELQ-300rI22L
  ED50: 0.25 (0.21–0.30) mg/kg/day and 0.25 mg/kg/day
[3]; P. yoelii wild type
  ED50: 0.24 (0.20–0.29) mg/kg/day and 0.24 mg/kg/day
[5]; 1 mg/kg/day oral
  protection from liver-stage infection: did not clear liver-stage infection
[5]; 4 mg/kg/day oral
  protection from liver-stage infection: did not clear liver-stage infection
[5]; 10 mg/kg/day oral
  protection from liver-stage infection: full protection
[4]; D6, read-out: in vitro IC50 vs P. falciparum
  IC50: 0.028 ± 0.00036 nM
[4]; D10yDHODH, read-out: in vitro IC50 vs P. falciparum
  IC50: > 2500 nM
[4]; Dd2, read-out: in vitro IC50 vs P. falciparum
  IC50: 0.042 ± 0.0042 nM
[4]; Tm90-C2B (cyt b Y268S, ATV-resistant), read-out: in vitro IC50 vs P. falciparum
  IC50: 4 ± 0.076 nM
